Results reported in US7935706B2, “Nitrogen-containing heterocycle derivatives substituted with cyclic group” (Shionogi & Co., Ltd., priority 2006, dated 2011).
pIC50: −log10 of the molar value. Where two headings read alike, the source gives them in different places. Blank lines part the entries; values can stand above or below the compound they belong to.

Key:
[1] = target: T1, NR1/NR2B receptor (Rattus norvegicus, UniProt P35439+Q00960); assay: Test of binding with NMDA receptor (NR1/NR2B receptor): competition with [3H]-Ifenprodil on rat cerebral cortex membrane specimen; conditions: for IC50: [3H]-Ifenprodil 5 nM, GBR-12909 3 μM, rat cerebral cortex membranes, ice temperature 120 minutes, read-out: NR2B (IC50 μM); for pIC50: same binding test, read-out: IC50 (binding with NR1/NR2B receptor)
T1 construct: from tissue; host or cells: rat cerebral cortex membranes (male Slc: Wistar rat)
T1 sequence (Q00960 27-1482, other chains not shown): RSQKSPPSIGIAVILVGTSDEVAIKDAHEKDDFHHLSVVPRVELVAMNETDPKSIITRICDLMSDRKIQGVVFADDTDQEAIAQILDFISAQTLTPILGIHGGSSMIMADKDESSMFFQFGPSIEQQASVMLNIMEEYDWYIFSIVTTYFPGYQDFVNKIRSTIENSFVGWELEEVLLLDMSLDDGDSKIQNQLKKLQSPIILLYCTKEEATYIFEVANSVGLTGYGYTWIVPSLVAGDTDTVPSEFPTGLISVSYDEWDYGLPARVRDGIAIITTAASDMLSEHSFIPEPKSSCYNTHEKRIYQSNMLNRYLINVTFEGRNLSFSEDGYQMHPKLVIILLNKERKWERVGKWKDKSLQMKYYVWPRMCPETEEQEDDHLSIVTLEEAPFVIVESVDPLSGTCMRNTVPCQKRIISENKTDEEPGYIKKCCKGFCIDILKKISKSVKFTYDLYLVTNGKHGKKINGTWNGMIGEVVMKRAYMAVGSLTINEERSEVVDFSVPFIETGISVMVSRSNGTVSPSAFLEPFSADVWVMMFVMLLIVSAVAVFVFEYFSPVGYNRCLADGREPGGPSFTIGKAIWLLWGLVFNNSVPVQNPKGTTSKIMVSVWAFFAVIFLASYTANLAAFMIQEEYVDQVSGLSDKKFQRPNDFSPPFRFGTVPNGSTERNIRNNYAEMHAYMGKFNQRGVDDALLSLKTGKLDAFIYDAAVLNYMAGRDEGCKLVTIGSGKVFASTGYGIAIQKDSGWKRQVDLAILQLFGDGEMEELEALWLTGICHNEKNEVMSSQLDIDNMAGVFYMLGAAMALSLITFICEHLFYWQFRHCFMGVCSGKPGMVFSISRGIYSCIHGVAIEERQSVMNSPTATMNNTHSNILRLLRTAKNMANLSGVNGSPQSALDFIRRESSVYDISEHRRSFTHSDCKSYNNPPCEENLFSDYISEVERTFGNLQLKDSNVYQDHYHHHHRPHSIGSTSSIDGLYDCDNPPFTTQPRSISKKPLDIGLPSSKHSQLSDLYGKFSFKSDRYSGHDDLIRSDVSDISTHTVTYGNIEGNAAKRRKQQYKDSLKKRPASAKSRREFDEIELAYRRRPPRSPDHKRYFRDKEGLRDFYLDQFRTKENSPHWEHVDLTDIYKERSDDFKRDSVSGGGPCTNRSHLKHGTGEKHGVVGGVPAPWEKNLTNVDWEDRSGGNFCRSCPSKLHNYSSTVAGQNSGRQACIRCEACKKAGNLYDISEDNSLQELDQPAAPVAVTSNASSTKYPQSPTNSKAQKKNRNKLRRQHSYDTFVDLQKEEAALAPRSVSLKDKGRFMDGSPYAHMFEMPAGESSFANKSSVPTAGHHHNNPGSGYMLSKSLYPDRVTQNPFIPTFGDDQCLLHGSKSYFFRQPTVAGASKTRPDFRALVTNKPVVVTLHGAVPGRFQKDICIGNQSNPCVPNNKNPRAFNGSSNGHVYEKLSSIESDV
Protocol: Test of Binding with NMDR Receptor (NR1/NR2B Receptor)
Using Ifenprodil which is an antagonist specific for a NR1/NR2B subtype receptor as a ligand, an experiment of competition between a receptor and a test compound was performed.
Using a male Slc: Wistar rat as an animal, a brain was isolated after decapitation, and a cerebral cortex was fractionated. The cerebral cortex was homogenized with a 20-fold amount of an ice-cooled 50 mM Tris/HCl buffer (pH 7.4), and the homogenate was centrifuged at 4° C. and 27,500×g for 10 minutes. The resulting precipitate was suspended in the same buffer, and this was again centrifuged. This operation was repeated for three times, the resulting precipitate was suspended in a buffer, and this was stored at −80° C. Immediately before an experiment, the frozen suspension was thawed at room temperature, this was centrifuged at 4° C. and 27,500×g for 10 minutes, and the resulting precipitate was suspended in a buffer. Further, the suspension was diluted 10-fold with a buffer, and this was used as a membrane specimen in an experiment. In a binding experiment, to 470 μl of the membrane specimen were added […] of each of test compounds having different concentrations, 10 μl of a labeled ligand [^3H]-Ifenprodil and 10 μl GBR-12909, followed by incubation at an ice temperature for 120 minutes. A concentration of [^3H]-Ifenprodil of the labeled ligand was finally 5 nM, and a concentration of GBR-12909 was finally 3 μM. For measuring a total binding amount, DMSO as a solvent was used and, for measuring a non-specific binding amount, 100 μM Ifenprodil was used. GBR-12909 was added in order to block binding of [^3H]-Ifenprodil to non-polyamine-sensitive site. After incubation, a bound formand a free foramwere separated using Whatman GF/C filter (manufactured by Whatman), and the filter was washed with 2.5 ml ice-cooled buffer four times. The filter was immersed in liquid scintillation (Cryasol I, manufactured by Nacalai tesque), and radioactivity (dpm) was measured with a liquid scintillation counter. From a measured value, a binding inhibition rate (%) was obtained by the following equation, and a dose at which binding is inhibited 50% (IC50) was calculated. A formula of GBR-12909 (vanoxerine) is shown below.
Binding inhibition rate(%)=100−[(binding amount in the presence of test compound−non-specific binding amount)/(total binding amount−non-specific binding amount)]×100

[2] = target: T2, NMDA receptor (NR1 subunit and NR2B subunit) (Mus musculus, UniProt P35438+Q01097); assay: Measurement of expression of NMDA receptor and Ca ion influx amount (glutamic acid/glycine-induced, HEK293 cell co-expressing NR1 and NR2B subunits, Fluo-3/AM); format: cell-based
T2 construct: expressed in transfected cells; host or cells: HEK293 cells, transient transfection with pcDNA3.1 plasmids
T2 sequence (Q01097 27-1482, other chains not shown): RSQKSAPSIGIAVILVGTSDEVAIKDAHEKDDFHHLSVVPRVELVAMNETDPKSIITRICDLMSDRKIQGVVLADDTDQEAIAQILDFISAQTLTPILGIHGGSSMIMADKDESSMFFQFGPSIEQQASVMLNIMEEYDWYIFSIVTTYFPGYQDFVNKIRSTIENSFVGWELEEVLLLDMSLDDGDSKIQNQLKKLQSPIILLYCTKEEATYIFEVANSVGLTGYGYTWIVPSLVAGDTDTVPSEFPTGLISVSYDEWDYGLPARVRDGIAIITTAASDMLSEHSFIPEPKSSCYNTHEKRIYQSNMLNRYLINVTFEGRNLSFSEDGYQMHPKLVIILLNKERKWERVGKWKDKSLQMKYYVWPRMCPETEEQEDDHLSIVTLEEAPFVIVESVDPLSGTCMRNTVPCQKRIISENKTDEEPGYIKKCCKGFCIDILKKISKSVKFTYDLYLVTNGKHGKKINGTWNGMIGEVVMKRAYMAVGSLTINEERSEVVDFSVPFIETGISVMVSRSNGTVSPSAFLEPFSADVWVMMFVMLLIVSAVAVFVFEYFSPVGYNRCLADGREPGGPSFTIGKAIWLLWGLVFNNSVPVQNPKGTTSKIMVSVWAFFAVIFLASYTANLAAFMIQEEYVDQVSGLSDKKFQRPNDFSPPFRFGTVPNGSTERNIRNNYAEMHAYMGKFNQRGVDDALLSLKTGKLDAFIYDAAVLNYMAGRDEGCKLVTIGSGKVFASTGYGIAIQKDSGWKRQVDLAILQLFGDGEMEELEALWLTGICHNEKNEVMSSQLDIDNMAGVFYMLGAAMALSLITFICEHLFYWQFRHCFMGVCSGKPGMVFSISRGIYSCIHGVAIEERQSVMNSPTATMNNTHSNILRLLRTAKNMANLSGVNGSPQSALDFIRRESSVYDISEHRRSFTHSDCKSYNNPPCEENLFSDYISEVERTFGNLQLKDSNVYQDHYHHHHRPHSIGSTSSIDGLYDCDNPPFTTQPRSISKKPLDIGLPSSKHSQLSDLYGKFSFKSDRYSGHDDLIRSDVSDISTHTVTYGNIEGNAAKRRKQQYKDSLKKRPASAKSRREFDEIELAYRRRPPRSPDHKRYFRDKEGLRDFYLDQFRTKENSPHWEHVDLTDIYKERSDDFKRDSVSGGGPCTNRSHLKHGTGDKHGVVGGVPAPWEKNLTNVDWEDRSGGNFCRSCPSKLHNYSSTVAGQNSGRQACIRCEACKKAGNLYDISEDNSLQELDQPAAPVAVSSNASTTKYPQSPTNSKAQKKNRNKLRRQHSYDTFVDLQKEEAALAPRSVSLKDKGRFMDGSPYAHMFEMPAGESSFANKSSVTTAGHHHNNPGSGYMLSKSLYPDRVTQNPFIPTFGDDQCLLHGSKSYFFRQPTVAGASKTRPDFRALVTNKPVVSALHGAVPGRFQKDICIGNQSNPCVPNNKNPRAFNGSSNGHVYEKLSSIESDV
Protocol: Measurement of Expression of NMDA Receptor and Ca Ion Influx Amount
A complementary DNA (cDNA) of a mouse NMDA receptor subunit was transiently introduced into a HEK293 cell and, after 1 day from introduction, change in a glutamic acid/glycine-induced intracelluar Ca amount was measured using a Ca ion reactive fluorescent coloring matter.
The HEK293 cell was cultured, and passaged using a modified Dulbecco's Eagle medium (DMEM, low glucose).
The HEK293 cell (20,000/well) was seeded on a 96-well plate, a NR1 subunit and a NR2B subunit of the NMDA receptor incorporated into the pcDNA3.1 plasmid were transiently introduced into a cell, and the subunits were co-expressed. An introduction amount of a DNA was 0.025 μg in the case of the NR1 subunit, and 0.075 μg in the case of NR2B subunit per well. For the cell after introduction, cell death was inhibited using 50 μM of the NMDA receptor antagonist MK-801.
For adjusting a test compound and washing a cell, Krebs/Ringer/Hepes buffer (KRH, Ca: 5 mM) was used.
After 1 day from introduction, the NMDA receptor antagonist MK-801 was washed out using the KRH buffer, and a Ca ion indication fluorescent coloring matter Fluo-3/AM was made to be taken into the cell. Ca ion influx was induced with 20 μM glutamic acid/2 μM glycine. Change in a fluorescent amount due to Ca ion influx into the cell was measured at excitation of 480 nm using a fluorescent imaging system FDSS 3000.
From a measured value of the test compound, a Ca ion influx inhibition rate (%) was obtained by the following equation, and a dose at which influx is inhibited 50% (IC50) was calculated.
Ca ion influx inhibition rate(%)=100−[(fluorescent amount in the presence of test compound−background fluorescent amount)/(total fluorescent amount−background fluorescent)]×100

[3] = same Ca ion influx test, read-out: IC50 (Ca ion influx inhibition)
[4] = Ca ion influx induced with 20 μM glutamic acid/2 μM glycine, HEK293 cell with mouse NR1/NR2B, read-out: Ca2+ IC50

Structure (SMILES): O=C(C=C1CCN(c2cc(C(F)(F)F)ccn2)CC1)Nc1ccc2[nH]c(=O)oc2c1 [Compound I-41]
- pIC50 [2, 4]: 7.04

Structure (SMILES): O=C(CC1=CCN(c2ccc(C(F)(F)F)cc2)CC1)Nc1ccc2[nH]c(=O)oc2c1 [Compound I-53]
- pIC50 [2, 4]: 7.17

Structure (SMILES): O=C(CC1(O)CCN(c2ccc(F)c(C(F)(F)F)c2)CC1)Nc1ccc2[nH]c(=O)sc2c1 [Compound I-80]
- pIC50 [2, 4]: 7.28

Structure (SMILES): C[C@@H]1CN(C(=O)C(=O)Nc2ccc3[nH]c(=O)oc3c2)CCN1c1ccc(OC(F)(F)F)cc1 [Compound I-212]
- pIC50 [2, 3]: ≥ 7.00

Structure (SMILES): O=C(NCC1CCN(c2ccc(Cl)c(F)c2)CC1)c1ccc2[nH]c(=O)oc2c1 [Compound I-140]
- pIC50 [2, 4]: 7.36

Structure (SMILES): O=C(C=C1CCN(c2ccc(Cl)c(F)c2)CC1)Nc1ccc2[nH]c(=O)oc2c1 [Compound I-188]
- IC50 [1]: 0.021 µM

Structure (SMILES): O=C(CC1(O)CCN(c2ccc(F)c(C(F)(F)F)c2)CC1)Nc1ccc2[nH]c(=O)oc2c1 [Compound I-81]
- pIC50 [2, 4]: 7.21

Structure (SMILES): CC(C)c1ccc(N2CCC(O)(CC(=O)Nc3ccc4[nH]c(=O)oc4c3)CC2)cc1 [Compound I-40]
- pIC50 [2, 4]: 7.82

Structure (SMILES): O=C(Nc1cnc2[nH]c(=O)oc2c1)C(=O)N1CCN(c2ccc(Br)cc2)CC1 [Compound I-94]
- pIC50 [2, 4]: 7.29

Structure (SMILES): COc1ccc(N2CCN(C(=O)C(=O)Nc3ccc4[nH]c(=O)oc4c3)CC2)cc1F [Compound I-232]
- pIC50 [1]: ≥ 7.00

Structure (SMILES): O=C(Nc1ccc2[nH]c(=O)oc2c1)C(O)C1CCN(c2ccc(C(F)(F)F)cc2)CC1 (stereo not shown) [Compound I-25]
- pIC50 [2, 4]: 7.20

Structure (SMILES): O=C(CC1(O)CCN(c2ccc(Cl)cc2)CC1)Nc1ccc2[nH]c(=O)oc2c1 [Compound I-34]
- pIC50 [2, 4]: 7.70

Structure (SMILES): O=C(C=C1CCN(c2ccc(F)c(F)c2)CC1)Nc1ccc2[nH]c(=O)oc2c1 [Compound I-192]
- IC50 [1]: 0.052 µM

Structure (SMILES): C[C@@H]1CN(c2ccc(Cl)cn2)CCN1C(=O)C(=O)Nc1ccc2[nH]c(=O)oc2c1 [Compound I-241]
- pIC50 [1]: ≥ 7.00

Structure (SMILES): O=C(CN1CCN(c2ccc(C(F)(F)F)cc2)CC1)Nc1ccc2[nH]c(=O)oc2c1 [Compound I-235]
- pIC50 [1]: ≥ 7.00

Structure (SMILES): O=C(Nc1ccc2[nH]c(=O)[nH]c2c1)C(=O)N1CCN(c2ccc(F)cc2)CC1 [Compound I-85]
- IC50 [1]: 0.067 µM

Structure (SMILES): C[C@H]1CN(C(=O)C(=O)Nc2ccc3[nH]c(=O)oc3c2)CCN1c1ccc(Cl)cc1 [Compound I-176]
- pIC50 [2, 3]: ≥ 7.00

Further lines, results first:

- IC50 [1]: 0.073 µM
Structure (SMILES): O=C(Nc1ccc2[nH]c(=O)oc2c1)C(=O)N1CCN(c2ccc(C(F)(F)F)nc2)CC1 [Compound I-198]

- pIC50 [2, 3]: ≥ 7.00
Structure (SMILES): O=C(Nc1cnc2[nH]c(=O)oc2c1)C(=O)N1CCN(c2ccc(Cl)cc2)CC1 [Compound I-76]

- pIC50 [2, 4]: 7.43
Structure (SMILES): O=C(C=C1CCN(c2ccc(C(F)(F)F)cc2)CC1)Nc1ccc2[nH]c(=O)oc2c1 [Compound I-16]

- pIC50 [2, 4]: 7.23
Structure (SMILES): O=C(CC1(O)CCN(c2ccc(Cl)c(Cl)c2)CC1)Nc1cnc2[nH]c(=O)oc2c1 [Compound I-197]

- pIC50 [2, 3]: ≥ 7.00
Structure (SMILES): O=C(Nc1cnc2[nH]c(=O)oc2c1)C(=O)N1CCN(c2ccc(F)c(Cl)c2)CC1 [Compound I-111]

- pIC50 [1]: ≥ 7.00
Structure (SMILES): O=C(CC1CCN(c2ccc(OC(F)(F)F)cc2)CC1)Nc1ccc2[nH]c(=O)oc2c1 [Compound I-226]

- pIC50 [2, 4]: 7.51
Structure (SMILES): O=C(NCC1=CCN(c2ccc(C(F)(F)F)cc2)CC1)c1ccc2[nH]c(=O)sc2c1 [Compound I-78]

- pIC50 [1]: ≥ 7.00
Structure (SMILES): O=C(CC1CCN(c2ccc(OC(F)F)cc2)CC1)Nc1ccc2[nH]c(=O)oc2c1 [Compound I-239]
